{"source": "patent US20260101892A1", "about": "“METHOD TO INHIBIT PROLIFERATION OF A PHYTOPATHOGEN ON PLANTS AND COMPOSITIONS USED FOR THIS PURPOSE” (CYSBIO APS, priority 2022, published 2026)", "key": {"[1]": {"tested_on": "Blumeria graminis f. sp. tritici", "test": "Powdery mildew in wheat", "format": "in vivo", "details": "crop Wheat"}, "[2]": {"tested_on": "tilletia caries", "test": "Seed dressing against common bunt of wheat", "protocol": "(§2) To investigate if zosteric acid can be applied as a seed dressing agent to prevent different seed borne fungal infections, the ability of zosteric acid to prevent infection of wheat and barley with the common bunt of wheat caused by tilletia caries and barley stribe, caused by pyronophora graminea was tested.\n(§3) To investigate if zosteric acid can be applied as a seed dressing agent to prevent different seed borne fungal infections, the ability of zosteric acid to prevent infection of wheat and barley with the common bunt of wheat caused by tilletia caries and barley stribe, caused by pyronophora graminea) was tested."}, "[3]": {"tested_on": "Ustilago nuda", "test": "Loose smut of barley", "format": "in vivo", "details": "crop Barley"}, "[4]": {"tested_on": "Penicillium digitatum", "test": "Post-harvest preservation of lemons", "format": "in vivo", "experimental": "(§1) To investigate if zosteric acid and/or coumaric acid can protect fruit and vegetables against post-harvest infection with different fungi, zosteric and coumaric acids fungicidal effect was tested in capsicums and lemons infected with Alternaria alternata and Penicillium digitatum, respectively. The tests were performed by acquiring the relevant fruit and vegetables from the local supermarket. Both fruit and vegetables were bought as organic produce to ensure a minimum of pesticides had already been applied. […] Each application treatment was performed in triplicate on three separate pieces of produce. After treatment, the produce was allowed to dry in a sterile laminar flow cabinet followed by a second round of application and drying. The produce was then inoculated with the relevant fungal spores using a grafting stick. […] The inoculated produce was subsequently placed in […] plastic bags to prevent contamination with other organisms and to prevent the produce from drying out due to air circulation in the incubator. The wrapped capsicums and lemons were placed at 10° C. and the fungal growth followed by measuring the diameter of the growth from the point of inoculation for 25 days."}, "[5]": {"tested_on": "pyronophora graminea", "test": "Seed dressing against barley stripe", "protocol": "as §2, §3"}, "[6]": {"tested_on": "Penicillium citrinum", "details": "Mold on citrus fruits; N/A (In vitro); Villa et al 2010; cited from earlier work"}, "[7]": {"tested_on": "Leptosphaeria maculans", "test": "Blackleg disease in winter rape", "format": "in vivo", "details": "crop Brassica napus / winter rape"}, "[8]": {"tested_on": "Alternaria alternata", "test": "Post-harvest preservation of capsicums", "format": "in vivo", "details": "capsicums sprayed twice, 10° C., followed 25 days, triplicate", "experimental": "as §1"}, "[9]": {"tested_on": "Aspergillus niger", "details": "Common mold; N/A (In vitro); Villa et al 2010; cited from earlier work"}, "[10]": {"tested_on": "Puccinia striiformis", "test": "Yellow rust in wheat, greenhouse trial, contact fungicide", "details": "crop Wheat", "protocol": "A greenhouse trial was conducted to investigate if zosteric acid could be applied as a contact fungicide to control yellow rust in wheat. Wheat was sowed in one-liter pots, with five replicates per treatment. 14 days after sowing, plants were sprayed with 150 L/ha of 10% zosteric acid with 0.1% Tween. For reference, an untreated control, a treatment with 0.1% Tween, and a treatment with a currently used standard fungicide treatment for yellow rust was also included in the test. One day after spraying of the plants, they were inoculated with Puccinia striiformis which is the causative agent of yellow rust. Plants were assessed for attack with yellow rust 13, 19 and 21 days after infection with yellow rust."}, "[11]": {"tested_on": "downy mildew in grapevine (plasmopara viticola)", "test": "Downy mildew in grapevine, controlled environment trial, foliar spray"}, "[12]": {"tested_on": "late potato blight (Phytophtora infestans)", "format": "in vivo, Phytophthora infestans", "details": "for reduction of pest severity: 5% zosteric acid and 0.3 L/ha BREAK THRU, vs untreated control"}, "[13]": {"tested_on": "European grapes (Vitis vinifera)", "test": "Phytotoxicity evaluation in the grapevine downy mildew trial"}, "[14]": {"tested_on": "strawberries (Fragaria sp.)", "test": "Phytotoxicity evaluation in the strawberry powdery mildew trial", "format": "in vivo", "details": "at concentrations that control disease"}, "[15]": {"tested_on": "potatoes (Solanum tuberosum, variety Venezia)", "test": "Phytotoxicity assessment in the potato blight climate chamber test", "format": "in vivo", "details": "throughout the trials (0.1%, 1%, 5% zosteric acid)", "experimental": "The application was conducted with a Research Track Sprayer and three different concentrations of zosteric acid (0.1%, 1%, and 5%) were sprayed one day before pathogen inoculation and two different concentrations of zosteric acid (1% and 5%) were sprayed after inoculation as soon as the infection got visible. Plants were assessed for phytotoxicity and pest severity 0, 4, and 7 days after the curative application."}, "[16]": {"tested_on": "Cercospora beticola", "test": "Cercospora leaf spot disease in sugarbeet", "format": "in vivo", "details": "crop Beta vulgaris vulg. altissima / sugarbeet"}, "[17]": {"tested_on": "Magnaporthe grisea", "details": "Rice blast; crop Rice; Stanley 2002; cited from earlier work"}, "[18]": {"tested_on": "Septoria tritici", "test": "Septoria leaf blotch", "format": "in vivo"}, "[19]": {"tested_on": "powdery mildew (Podosphaera aphanis)", "test": "Powdery mildew in strawberries, controlled environment trial", "details": "crop Strawberries", "protocol": "The efficacy was evaluated as % area of leaves that were infected with disease based on evaluation of 50 leaves from each plant. The evaluation was performed 30 days after the first treatment and 10 days after the last treatment.\nFive different treatments were applied; 1) an untreated control, 2) zosteric acid at 3%, 3) zosteric acid at 6%, 4) zosteric acid at 9%, 5) Karma at 3 kg/ha. […] Four treatment applications were performed at day 0, 7, 14, and 21 respectively. Prior to each application the infection and phytotoxicity of the plants were evaluated and scored."}, "[20]": {"tested_on": "Colletotrichum lindemuthianum", "details": "Bean anthracnose; crop Bean; Stanley 2002; cited from earlier work"}}, "note": "Like-named read-outs stand apart in the source and are kept apart here.", "data": [{"compound": "O=C(O)/C=C/c1ccc(OS(=O)(=O)O)cc1", "note": "[zosteric acid]", "values": [{"measurement": "zosteric acid effective (Yes/No)", "setting": "[1]", "result": "not effective and No"}, {"measurement": "zosteric acid effective (Yes/No)", "setting": "[2]; Common bunt of wheat, crop Wheat", "result": "good efficacy and Yes"}, {"measurement": "effect in combination with Redigo Pro", "setting": "[2]; protection against common bunt of wheat, seed dressing", "result": "strong synergistic effect"}, {"measurement": "reduction of percentage of infected plant ears compared to untreated control", "setting": "[2]; wheat seeds treated with 0.1% zosteric acid", "result": "more than 2 fold"}, {"measurement": "reduction of percentage of infected plant ears compared to untreated control", "setting": "[2]; wheat seeds treated with 1% zosteric acid", "result": "more than 2 fold"}, {"measurement": "zosteric acid effective (Yes/No)", "setting": "[3]", "result": "no efficacy and No"}, {"measurement": "time after inoculation until P. digitatum growth was observed", "setting": "[4]; lemons sprayed twice, 10° C., followed 25 days, triplicate", "result": 19, "unit": "days"}, {"measurement": "replicates with P. digitatum growth at end of test period", "setting": "[4]; lemons, day 25, three replicates", "result": "only a single replicate"}, {"measurement": "zosteric acid effective (Yes/No)", "setting": "[5]; Barley stripe, crop Barley", "result": "Yes"}, {"measurement": "reduction of percentage of infected plant ears compared to untreated control", "setting": "[5]; barley seeds treated with 0.1% zosteric acid", "result": "more than 2 fold"}, {"measurement": "reduction of percentage of infected plant ears compared to untreated control", "setting": "[5]; barley seeds treated with 1% zosteric acid", "result": "more than 2 fold"}, {"measurement": "zosteric acid effective (Yes/No)", "setting": "[6]", "result": "Yes"}, {"measurement": "zosteric acid effective (Yes/No)", "setting": "[7]", "result": "not effective and No"}, {"measurement": "time after inoculation until A. alternata growth was displayed", "setting": "[8]", "result": 19, "unit": "days"}, {"measurement": "zosteric acid effective (Yes/No)", "setting": "[9]", "result": "Yes"}, {"measurement": "zosteric acid effective (Yes/No)", "setting": "[10]", "result": "effective and Yes"}, {"measurement": "zosteric acid effective (Yes/No)", "setting": "[11]; Downy mildew in wine, crop Vitis vinifera / European grape", "result": "highly effective and Yes"}, {"measurement": "efficacy compared with positive control Funguran Progress (copper)", "setting": "[11]; Example 9 trial", "result": "comparable to the positive control Funguran Progress"}, {"measurement": "dose response of disease control", "setting": "[11]; increasing doses of zosteric acid, scored 17 days after application", "result": "clear dose response"}, {"measurement": "reduction of pest severity", "setting": "[12]; 0 days from the curative treatment", "result": 7.8, "unit": "%"}, {"measurement": "reduction of pest severity", "setting": "[12]; 4 days from the curative treatment", "result": 7.3, "unit": "%"}, {"measurement": "reduction of pest severity", "setting": "[12]; 7 days from the curative treatment", "result": 6.6, "unit": "%"}, {"measurement": "zosteric acid effective (Yes/No)", "setting": "[12]; Potato blight, crop Solanum tuberosum / potato", "result": "highly effective and Yes"}, {"measurement": "phytotoxicity", "setting": "[13]; 1% zosteric acid, scored 13 days after application", "result": "< 0.5", "unit": "%"}, {"measurement": "phytotoxicity", "setting": "[13]; 5% treatment, Example 9 trial", "result": 7, "unit": "%"}, {"measurement": "phytotoxic effects", "setting": "[13]; at the effective concentration, scored 13 days after application", "result": "does not have significant phytotoxic effects"}, {"measurement": "phytotoxicity", "setting": "[13]; high concentrations (>2%), scored 13 days after application", "result": "start to be phytotoxic"}, {"measurement": "phytotoxicity", "setting": "[14]", "result": "no phytotoxicity"}, {"measurement": "phytotoxic effects", "setting": "[15]", "result": "No phytotoxic effects were observed"}, {"measurement": "zosteric acid effective (Yes/No)", "setting": "[16]", "result": "not effective and No"}, {"measurement": "zosteric acid effective (Yes/No)", "setting": "[17]", "result": "Yes"}, {"measurement": "zosteric acid effective (Yes/No)", "setting": "[18]", "result": "not effective and No"}, {"measurement": "zosteric acid effective (Yes/No)", "setting": "[19]", "result": "Yes"}, {"measurement": "zosteric acid effective (Yes/No)", "setting": "[20]", "result": "Yes"}]}]}
